These are literature values, as cited in publication PMC5548178 (Pharmacotherapy, 2016).

Where two headings read alike, the source gives them in different places.

Data set [1] has as its system triglyceride levels.
The conditions of data set [2]: single-dose gemfibrozil 600 mg after 2 weeks of lopinavir 400 mg–ritonavir 100 mg twice daily; healthy volunteers.
The conditions of data set [3]: reported variability in healthy volunteers.
The test system of data set [4] is P-glycoprotein (P-gp).

Consider `Cc1ccc(C)c(OCCCC(C)(C)C(=O)O)c1` [gemfibrozil], for which the “Mean change in triglyceride levels” value is given as “–60.3%” in data set [1] (HIV-infected patients receiving NNRTI-based cART) and “–59.3%” in data set [1] (non–HIV-infected controls). Moreover, in data set [2], the “Reduction in gemfibrozil exposure (AUC0-∞)” value was 41%.
For `CC(C)(Oc1ccc(C(=O)c2ccc(Cl)cc2)cc1)C(=O)O` [fenofibric acid], the “AUC (mean ± SD)” value in data set [3] is 92000 ± 26000 ng·h/mL. In addition, in data set [4], the “Substrate for the efflux transporter P-glycoprotein” value is recorded as “not a substrate”.
